Experimental findings from US6251912A, “Substituted quinazoline derivatives” (American Cyanamid Company, priority 1998, dated 2001) are described below.

One data set has as its system A2780DDP. Nature of the data set: Inhibition of cancer cell growth as measured by cell number, A2780DDP. Type of data set: cell-based. As to conditions: Homo sapiens, read-out: IC50, inhibition of cancer cell growth. The procedure: (§1) After 48 hours exposure to test compounds, cells were fixed with trichloroacetic acid, and stained with Sulforhodamine B. After washing with trichloroacetic acid, bound dye was solubilized in 10 mM Tris base and optical density was determined using plate reader. Under conditions of the assay the optical density is proportional to the number of cells in the well. […] The test procedure is described in details by Philip Skehan et. al, J.Natl. Canc.

The next data set relates to MCF7. Nature of the data set: Inhibition of cancer cell growth as measured by cell number, MCF7. As to conditions: Homo sapiens, read-out: IC50, inhibition of cancer cell growth. The class given is cell-based. As to the method: as §1
In the next data set the test system is MB435. Briefly: Inhibition of cancer cell growth as measured by cell number, MB435. The class given is cell-based. The note with it: Homo sapiens, read-out: IC50, inhibition of cancer cell growth. As to the method:
as §1

Another data set has as its system SW620. Briefly: Inhibition of cancer cell growth as measured by cell number, SW620. The class given is cell-based. The note with it: Homo sapiens, read-out: IC50, inhibition of cancer cell growth. The procedure: as §1
The subject of the next data set is LOX. Briefly: Inhibition of cancer cell growth as measured by cell number, LOX. Type of data set: cell-based. As to conditions: Homo sapiens, read-out: IC50, inhibition of cancer cell growth. As to the method:
as §1

The next data set deals with SKBR3. Nature of the data set: Inhibition of cancer cell growth as measured by cell number, SKBR3. Type of data set: cell-based. The note with it: Homo sapiens, read-out: IC50, inhibition of cancer cell growth. The procedure:
as §1

Another data set relates to A2780S. Nature of the data set: Inhibition of cancer cell growth as measured by cell number, A2780S. Type of data set: cell-based. As to conditions: Homo sapiens, read-out: IC50, inhibition of cancer cell growth. The procedure: as §1
For another data set, the system named is A431. Nature of the data set: Inhibition of cancer cell growth as measured by cell number, A431. The class given is cell-based. The note with it: Homo sapiens, read-out: IC50, inhibition of cancer cell growth. The procedure:
as §1

Data set [1] relates to human epidermoid tumors (A431). Type of data set: in vivo, BALB/c nu/nu female mice. The note with it: for % T/C / Relative Tumor Growth (RTG): days 1 through 10; for inhibition of tumor growth in vivo: in words. As to the method:
BALB/c nu/nu female mice (Charles River, Wilmington, Mass.) were used in the in vivo standard pharmacological test procedures. […] A unit of 5×10^6 cells were injected SC into mice. When tumors attained a mass of between 100 and 150 mg, the mice were randomized into treatment groups (day zero). Mice were treated IP or PO once a day either on days 1, 5, and 9 or on days 1 through 10 post staging with doses of either 80, 40 or 20, or 10 mg/kg/dose of the compound to be evaluated in 0.2% Klucel. Control animals received no drug. […] […] The %T/C (Tumor/Control) is determined by dividing the relative tumor growth of the treated group by the relative tumor growth of the placebo group and multiplying by 100.

Values after ≈ are worked out from the molar mass of the structure shown. Like-named read-outs stand apart in the source and are kept apart here. Where only a bound is given, the exact number is not on record here.

The IC50 is the point on the concentration scale where inhibition reaches its midpoint. As for `CC(C)(C)[Si](C)(C)OCC#CC(=O)Nc1ccc2ncnc(Nc3cccc(Br)c3)c2c1` [Example 15, 4-(tert-Butyl-dimethyl-silanyloxy)-but-2-ynoic acid [4-(3-bromo-phenylamino)-quinazolin-6-yl]-amide], the IC50 came to 0.05 µg/mL (≈ 0.0978 µM) in the data set with A2780DDP (48 h); 0.45 µg/mL (≈ 0.88 µM) with MCF7 (MCF7, 48 h); 0.42 µg/mL (≈ 0.821 µM) with MB435 (48 h); 0.02 µg/mL (≈ 0.0391 µM) with SW620 (SW-620, 48 h); 0.03 µg/mL (≈ 0.0587 µM) with LOX (48 h); 0.38 µg/mL (≈ 0.743 µM) in the data set on SKBR3 (SK-BR-3, 48 h). For the same molecule, the IC50 was determined as 0.02 µg/mL (≈ 0.0391 µM) in the data set on A2780S (48 h) and 0.04 µg/mL (≈ 0.0782 µM) with A431 (A-431, 48 h).

`CN(C)CC#CC(=O)Nc1ccc2ncnc(Nc3cccc(Br)c3)c2c1` [Example 21, 4-Dimethylamino-but-2-ynoic acid [4-(3-bromo-phenylamino)-quinazolin-6-yl]-amide]: the “% T/C” value in [1] (10 mg/kg/dose PO, Day 16) is reported as 56%; in data set [1] (10 mg/kg/dose PO, Day 21), 42%; in data set [1] (10 mg/kg/dose PO, Day 28), 42%; in data set [1] (20 mg/kg/dose PO, Day 7), 100%; in data set [1] (20 mg/kg/dose PO, Day 16), 82%; in [1] (20 mg/kg/dose PO, Day 28) it was 72%. In addition, the “% T/C” value in [1] (40 mg/kg/dose PO, Day 7) was 79%; in data set [1] (40 mg/kg/dose PO, Day 16), 84%. Further, the “inhibition of tumor growth in vivo” value in data set [1] is “effective inhibitor of tumor growth in vivo”.

In the case of `CCN(CC)CC#CC(=O)Nc1ccc2ncnc(Nc3cccc(Br)c3)c2c1` [Example 25, 4-Diethylamino-but-2-ynoic acid[4-(3-bromo-phenylamino)-quinazolin-6-yl]-amide], the “% T/C” value worked out at 71% in data set [1] (40 PO, Day 7 (TABLE 5)); 33% in [1] (40 PO, Day 14 (TABLE 5)); 40% in [1] (40 PO, Day 21 (TABLE 5)); 52% in data set [1] (40 PO, Day 28 (TABLE 5)). For the same molecule, the “Relative Tumor Growth (RTG)” value in [1] (40 PO, Day 7, control 2.76 (TABLE 5)) is 1.96; in data set [1] (40 PO, Day 14, control 7.07 (TABLE 5)), 2.33; in [1] (40 PO, Day 21, control 11.75 (TABLE 5)), 4.68; in data set [1] (40 PO, Day 28, control 17.13 (TABLE 5)), 8.84. In addition, the “inhibition of tumor growth in vivo” value in data set [1] is “effective inhibitor of tumor growth in vivo”. For the same molecule, in [1] (mouse, in vivo, po), the “S/T (No. Survivors/No. Treated)” value is on record as 4/5.

`C=C(CN1CCOCC1)C(=O)Nc1ccc2ncnc(Nc3cccc(Br)c3)c2c1` [Example 63, N-[4-(3-Bromo-phenylamino)-quinazolin-6-yl]-2-morpholin-4-ylmethyl-acrylamide]: the IC50 in the data set on A2780DDP (48 h) worked out at 4 µg/mL (≈ 8.54 µM); in the data set with MCF7 (MCF7, 48 h) it was 17 µg/mL (≈ 36.3 µM); in the data set with MB435 (48 h), 4.5 µg/mL (≈ 9.61 µM); with SW620 (SW-620, 48 h), 5.5 µg/mL (≈ 11.7 µM); in the data set on LOX (48 h), 3.9 µg/mL (≈ 8.33 µM); in the data set on SKBR3 (SK-BR-3, 48 h), 10 µg/mL (≈ 21.4 µM). The IC50 amounted to 0.8 µg/mL (≈ 1.71 µM) in the data set with A2780S (48 h) and 0.6 µg/mL (≈ 1.28 µM) with A431 (A-431, 48 h).

With `CN(C)CC=CC(=O)Nc1ccc2ncnc(Nc3cccc(Br)c3)c2c1` [Example 66, 4-Dimethylamino-but-2-enoic acid [4-(3-bromo-phenylamino)-quinazolin-6-yl]-amide], the IC50 in the data set with A2780DDP (48 h) is 5.1 µg/mL (≈ 12 µM); in the data set with MCF7 (MCF7, 48 h) it was 7.6 µg/mL (≈ 17.8 µM); with MB435 (48 h), 5.4 µg/mL (≈ 12.7 µM); in the data set with SW620 (SW-620, 48 h), 5.1 µg/mL (≈ 12 µM); in the data set on LOX (48 h), 4.9 µg/mL (≈ 11.5 µM); with SKBR3 (SK-BR-3, 48 h), under 0.01 µg/mL. Further, the IC50 in the data set on A2780S (48 h) is 3.9 µg/mL (≈ 9.15 µM); with A431 (A-431, 48 h), 0.007 µg/mL (≈ 0.0164 µM).

For the molecule `CCN(CC)CC=CC(=O)Nc1ccc2ncnc(Nc3cccc(Br)c3)c2c1` [Example 67, 4-Diethylamino-but-2-enoic acid [4-(3-bromo-phenylamino)-quinazolin-6-yl]-amide], the IC50 in the data set with A2780DDP (A2780DDP, 48 hours exposure) was 43 µg/mL (≈ 94.6 µM); in the data set on MCF7 (MCF7, 48 hours exposure), 59 µg/mL (≈ 130 µM); with MB435 (MB435, 48 hours exposure), 45 µg/mL (≈ 99 µM); in the data set on SW620 (SW-620, SW620, 48 hours exposure), 52 µg/mL (≈ 114 µM); with LOX (48 hours exposure), 46 µg/mL (≈ 101 µM); in the data set on SKBR3 (SK-BR-3, SKBR3, 48 hours exposure), under 0.01 µg/mL. For the same molecule, the IC50 with A2780S (48 hours exposure) was found to be 22 µg/mL (≈ 48.4 µM); in the data set on A431 (A-431, A431, 48 hours exposure) it was 0.01 µg/mL (≈ 0.022 µM).
